Test results published in ChEMBL document CHEMBL1141959, “Metalloform-selective inhibition: synthesis and structure-activity analysis of Mn(II)-form-selective inhibitors of Escherichia coli methionine aminopeptidase” (Bioorg Med Chem Lett, 2005).

Legend:
[1] = target: T1, Methionine aminopeptidase (Escherichia coli K-12, UniProt P0AE18); experiment: Inhibitory activity against Ni(II) form of Escherichia coli MetAP
T1 sequence (P0AE18 whole entry): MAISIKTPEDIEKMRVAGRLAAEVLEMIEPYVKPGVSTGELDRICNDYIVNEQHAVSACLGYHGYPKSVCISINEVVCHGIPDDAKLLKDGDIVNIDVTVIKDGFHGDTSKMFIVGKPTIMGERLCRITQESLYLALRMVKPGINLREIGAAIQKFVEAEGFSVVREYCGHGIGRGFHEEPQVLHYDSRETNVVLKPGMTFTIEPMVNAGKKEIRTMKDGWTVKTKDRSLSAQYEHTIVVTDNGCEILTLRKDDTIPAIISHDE

[2] = target: T1, Methionine aminopeptidase; experiment: Inhibitory activity against Fe(II) form of Escherichia coli MetAP
[3] = target: T1, Methionine aminopeptidase; experiment: Inhibitory activity against Co(II) form of Escherichia coli MetAP
[4] = target: T1, Methionine aminopeptidase; experiment: Inhibitory activity against Mn(II) form of Escherichia coli MetAP

SMILES	IC50 [1]	IC50 [2]	IC50 [3]	IC50 [4]
CCOc1ccccc1-c1ccc(C(=O)O)o1	> 200 µM	> 200 µM	147 µM	1.13 µM
COC(=O)c1ccccc1-c1ccc(C(=O)O)o1	194 µM	> 200 µM	160 µM	3.47 µM
O=C(O)c1ccc(-c2ccccc2CF)o1	68 µM	85.2 µM	55.4 µM	0.893 µM
O=C(O)c1ccc(-c2ccccc2)o1	195 µM	> 200 µM	188 µM	16.3 µM
O=C(O)Cc1ccc(Cc2ccccc2Cl)o1	117 µM	177 µM	77.3 µM	0.784 µM
O=C(NO)c1ccc(-c2ccccc2Cl)o1	5.9 µM	0.793 µM	4.61 µM	0.469 µM
N#CCc1ccc(-c2ccccc2Cl)o1	56.3 µM	97.7 µM	57.3 µM	47.6 µM
O=C(O)c1ccc(-c2ccccc2CO)o1	190 µM	> 200 µM	189 µM	10 µM
O=C(O)c1ccc(-c2ccc(Cl)cc2)o1	> 200 µM	> 200 µM	180 µM	12.1 µM
O=C(O)c1ccc(-c2cc([N+](=O)[O-])ccc2F)o1	193 µM	199 µM	157 µM	14.9 µM
O=C(O)c1ccc(Cc2ccccc2Cl)o1	191 µM	199 µM	158 µM	1.22 µM
O=C(O)c1ccc(-c2cccc(Cl)c2)o1	> 200 µM	> 200 µM	199 µM	11.7 µM
COC(=O)c1ccc(-c2ccccc2Cl)o1	> 200 µM	> 200 µM	> 200 µM	166 µM
O=C(NO)c1ccc(Cc2ccccc2Cl)o1	107 µM	122 µM	119 µM	9.84 µM
O=C(O)c1ccc(-c2ccccc2F)o1	> 200 µM	> 200 µM	> 200 µM	13.6 µM
O=C(O)c1ccc(Cc2ccccc2)o1	67.5 µM	33.7 µM	42.5 µM	33.5 µM
O=C(O)c1ccc(-c2ccccc2C(=O)O)o1	> 200 µM	> 200 µM	> 200 µM	23.5 µM
O=C(O)c1ccc(-c2ccccc2[N+](=O)[O-])o1	175 µM	178 µM	120 µM	1.08 µM
Nc1ccccc1-c1ccc(C(=O)O)o1	94.5 µM	95.8 µM	56.6 µM	12.5 µM
C=CCCOc1ccccc1-c1ccc(C(=O)O)o1	113 µM	111 µM	93.5 µM	3.65 µM
O=C(O)c1ccc(-c2ccccc2O)o1	153 µM	190 µM	127 µM	6.92 µM
O=Cc1ccccc1-c1ccc(C(=O)O)o1	67.5 µM	69.2 µM	82.6 µM	7.17 µM

Further compounds by falling IC50 [1], results first:

IC50 [1]	IC50 [2]	IC50 [3]	IC50 [4]	SMILES
188 µM	196 µM	187 µM	1.71 µM	Cc1cccc(-c2ccc(C(=O)O)o2)c1Cl
171 µM	193 µM	98.9 µM	4.71 µM	C#CCOc1ccccc1-c1ccc(C(=O)O)o1
165 µM	158 µM	101 µM	0.29 µM	O=C(O)c1ccc(-c2ccccc2C(F)(F)F)o1
163 µM	169 µM	103 µM	9.45 µM	COCCOc1ccccc1-c1ccc(C(=O)O)o1
137 µM	> 200 µM	71.4 µM	15.9 µM	NC(=O)c1ccc(-c2ccccc2Cl)o1
89.8 µM	138 µM	90.5 µM	44.6 µM	O=C(O)c1ccc(Cc2ccc(Cl)cc2)o1
55 µM	> 200 µM	84.2 µM	28.1 µM	OCc1ccc(-c2ccccc2Cl)o1
51.2 µM	178 µM	57.5 µM	40 µM	CONC(=O)c1ccc(-c2ccccc2Cl)o1
38.4 µM	31.1 µM	44.3 µM	1.32 µM	O=C(O)c1ccc(-c2cc([N+](=O)[O-])ccc2Cl)o1
34.5 µM	36.2 µM	24.1 µM	0.642 µM	COc1ccc([N+](=O)[O-])cc1-c1ccc(C(=O)O)o1
28.5 µM	150 µM	59.5 µM	1.11 µM	Cc1cc([N+](=O)[O-])ccc1-c1ccc(C(=O)O)o1
5.78 µM	58 µM	77.1 µM		NNC(=O)c1ccc(-c2ccccc2Cl)o1
